In patent US20160304556A1, “[…] ACTIVE COMPOUNDS AND THEIR METHODS OF USE” (AGIOS PHARMACEUTICALS, INC, priority 2012, published 2016):

How the values were obtained:
IDH1 R132H = IDH1 R132H (Homo sapiens, UniProt O75874, R132H); experiment: In vitro NADPH depletion assay for IDH1m R132H inhibitors; type: biochemical; conditions: enzyme, diaphorase/resazurin readout, read-out: IDH R132H IC50
Procedure: (§1) A test compound is prepared as 10 mM stock in DMSO and diluted to 50× final concentration in DMSO, for a 50 μl reaction mixture. IDH enzyme activity converting alpha-ketoglutarate to 2-hydroxyglutaric acid is measured using a NADPH depletion assay. In the assay the remaining cofactor is measured at the end of the reaction with the addition of a catalytic excess of diaphorase and resazurin, to generate a fluorescent signal in proportion to the amount of NADPH remaining. IDH1-R132 homodimer enzyme is diluted to […] in 40 μl of Assay Buffer(150 mM NaCl, 20 mM Tris-Cl pH 7.5, 10 mM MgCl2, 0.05% BSA, 2 mM b-mercaptoethanol); 1 μl of test compound dilution in DMSO is added and the mixture is incubated for 60 minutes at room temperature. The reaction is started with the addition of 10 μl of Substrate Mix ([…], 5 mM alpha-ketoglutarate, in Assay Buffer) and the mixture is incubated for 90 minutes at room temperature. The reaction is terminated with the addition of 25 μl of Detection Buffer (36 μg/ml diaphorase, […], in 1× Assay Buffer), and is incubated for 1 minute before reading on a SpectraMax platereader at Ex544/Em590.
(§2) Representative compounds of formula I set forth in Table 1 were tested in this assay and the results are set forth below in Table 3.

IDH1 R132C = IDH1 R132C (Homo sapiens, UniProt O75874, R132C); experiment: In vitro NADPH depletion assay for IDH1m R132C inhibitors; type: biochemical; conditions: enzyme, diaphorase/resazurin readout, read-out: IDH R132C IC50
IDH1 R132C, sequence (O75874 whole entry R132C): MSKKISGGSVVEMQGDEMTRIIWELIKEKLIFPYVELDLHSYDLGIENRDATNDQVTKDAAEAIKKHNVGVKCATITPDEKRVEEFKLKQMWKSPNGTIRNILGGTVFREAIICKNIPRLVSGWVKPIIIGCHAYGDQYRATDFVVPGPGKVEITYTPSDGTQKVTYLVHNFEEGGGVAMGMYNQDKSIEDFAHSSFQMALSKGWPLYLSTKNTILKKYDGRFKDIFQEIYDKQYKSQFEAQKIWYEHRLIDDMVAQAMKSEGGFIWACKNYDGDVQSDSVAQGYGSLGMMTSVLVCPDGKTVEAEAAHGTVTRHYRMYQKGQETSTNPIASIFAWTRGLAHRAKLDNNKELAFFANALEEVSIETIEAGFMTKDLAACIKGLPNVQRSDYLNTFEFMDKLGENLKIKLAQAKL
Procedure: as §1
Compounds are assayed for their activity against IDH1 R132C following the same assay as above with the following modifications: Assay Buffer is (50 mM potassium phosphate, pH 6.5; 40 mM sodium carbonate, 5 mM MgCl2, 10% glycerol, 2 mM b-mercaptoethanol, and 0.03% BSA). The concentration of NADPH and alpha-ketoglutarate in the Substrate Buffer is 20 μM and 1 mM, respectively.
as §2

HT1080 cells = experiment: Cellular assay, inhibition of 2-HG production (LC-MS) in HT1080 cells; type: cell-based; conditions: Homo sapiens, HT-1080, 48 hours, LC-MS of media
Procedure: Cells (HT1080 or U87MG) are grown in T125 flasks in DMEM containing 10% FBS, 1× penicillin/streptomycin and 500 ug/mL G418 (present in U87MG cells only). They are harvested by trypsin and seeded into 96 well white bottom plates at a density of 5000 cell/well in 100 μl/well in DMEM with 10% FBS. No cells are placed in columns 1 and 12. Cells are incubated overnight at 37° C. in 5% CO2. The next day test compounds are made up at 2× the final concentration and 100 μl are added to each cell well. The final concentration of DMSO is 0.2% and the DMSO control wells are plated in row G. The plates are then placed in the incubator for 48 hours. At 48 hours, 100 μl of media is removed from each well and analyzed by LC-MS for 2-HG concentrations. The cell plate is placed back in the incubator for another 24 hours. At 72 hours post compound addition, 10 mL/plate of Promega Cell Titer Glo reagent is thawed and mixed. The cell plate is removed from the incubator and allowed to equilibrate to room temperature. Then 100 μl of Promega Cell Titer Glo reagent is added to each well of media. The cell plate is then placed on an orbital shaker for 10 minutes and then allowed to sit at room temperature for 20 minutes. The plate is then read for luminescence with an integration time of 500 ms.
The IC50 for inhibition of 2-HG production (concentration of test compound to reduce 2HG production by 50% compared to control) in these two cell lines for various compounds of formula I is set forth in Table 2 above.

IDH1 R132H, sequence (O75874 whole entry R132H): as the sequence (O75874 whole entry R132C) above, with C132H counted along it

IC50 (IDH1 R132H) [nM]	IC50 (IDH1 R132C) [nM]	IC50 (HT1080 cells) [nM]	Structure (SMILES)
1000 to 2000	500 to 1000		O=C(NC1CC(F)(F)C1)[C@H](c1ccccc1Cl)N(C(=O)[C@@H]1CCN1c1ncccn1)c1cccc(F)c1 [Compound 103]
100 to 500	100 to 500		COC(=O)NCC(=O)N(c1cccc(F)c1)[C@H](C(=O)N[C@H]1CCCC(F)(F)C1)c1ccccc1Cl (single isomer, unassigned) [Compound 94, methyl 2-((1-(2-chlorophenyl)-2-(3,3-difluorocyclohexylamino)-2-oxoethyl) (3-fluoro-phenyl)amino)-2-oxoethylcarbamate]
100 to 500	100 to 500		COC(=O)NCC(=O)N(c1cccc(F)c1)[C@H](C(=O)N[C@@H]1CCCC(F)(F)C1)c1ccccc1Cl (single isomer, unassigned) [Compound 95, methyl 2-((1-(2-chlorophenyl)-2-(3,3-difluorocyclohexylamino)-2-oxoethyl) (3-fluoro-phenyl)amino)-2-oxoethylcarbamate]
100 to 500		1000 to 2000	COC(=O)N1CCNC[C@H]1C(=O)N(c1cccc(F)c1)[C@H](C(=O)NC1CC(F)(F)C1)c1ccccc1Cl [Compound 62, (S)-Methyl 2-(((S)-1-(2-chlorophenyl)-2-(3,3-difluorocyclobutylamino)-2-oxoethyl) -(3-fluoro-phenyl)carbamoyl)piperazine-1-carboxylate]
100 to 500		100 to 500	N#Cc1ccnc(N2c3ccccc3C[C@H]2C(=O)N(c2cc(F)cc(F)c2)C(C(=O)NC2CC(F)(F)C2)c2ccccc2Cl)c1 (stereo partly drawn) [Compound 119, (2S)—N-(1-(2-chlorophenyl)-2-((3,3-difluorocyclobutyl)amino)-2-oxoethyl)-1-(4-cyanopyridin-2-yl)-N-(3,5-difluorophenyl)indoline-2-carboxamide]
500 to 1000		1000 to 2000	Cc1ccccc1C(C(=O)NC1CC(F)(F)C1)N(C(=O)Cn1ccnc1C)c1cccc(F)c1 (stereo not shown) [Compound 18]
100 to 500		500 to 1000	N#Cc1ncn(CC(=O)N(c2cccc(F)c2)C(C(=O)NC2CCCCC2)c2ccccc2Cl)c1C#N (stereo not shown) [Compound 22]
≤ 100		100 to 500	O=C(NC1CC(F)(F)C1)C(c1ccccc1Cl)N(C(=O)[C@@H]1CCCc2nccn21)c1cccc(F)c1 (stereo in doubt) [Compound 41]
≤ 100		500 to 1000	COC(=O)N1COC[C@H]1C(=O)N(c1cccc(F)c1)[C@H](C(=O)NC1CC(F)(F)C1)c1ccccc1Cl [Compound 54]
100 to 500		1000 to 2000	Cc1ccccc1[C@@H](C(=O)NC1CCCCC1)N(C(=O)[C@H]1CCCN1S(C)(=O)=O)c1cccc(F)c1 [Compound 2]
100 to 500		100 to 500	O=C(NC1CC(F)(F)C1)[C@H](c1ccccc1Cl)N(C(=O)[C@@H]1Cc2ccccc2N1)c1cc(F)cc(F)c1 (single isomer, unassigned) [Compound 118]
≤ 100		500 to 1000	COC(=O)N1C[C@@H](O)C[C@H]1C(=O)N(c1cccc(F)c1)[C@H](C(=O)NC1CC(F)(F)C1)c1ccccc1Cl [Compound 52]
≤ 100		500 to 1000	COC(=O)N(C)[C@@H](C)C(=O)N(c1cccc(F)c1)[C@H](C(=O)NC1CCCCC1)c1ccccc1C [Compound 5]
≤ 100		100 to 500	O=C(NC1CCCCC1)C(c1ccccc1Cl)N(C(=O)C1CCc2ccccc2N1)c1cccc(F)c1 (stereo not shown) [Compound 31, N-(1-(2-chlorophenyl)-2-(cyclohexylamino)-2-oxoethyl)-N-(3-fluorophenyl)-1,2,3,4-tetrahydroquinoline-2-carboxamide]
100 to 500		500 to 1000	Cc1ccccc1C(C(=O)NC1CCC(F)(F)CC1)N(C(=O)Cn1ccnc1C(F)(F)F)c1cccc(F)c1 (stereo not shown) [Compound 11]
100 to 500		100 to 500	O=C(NC1CCCCC1)C(c1ccccc1Cl)N(C(=O)C1Cc2ccccc2N1)c1cccc(F)c1 (stereo not shown) [Compound 32]
≤ 100		1000 to 2000	COC(=O)N1C[C@@H](OC)C[C@H]1C(=O)N(c1cccc(F)c1)[C@H](C(=O)NC1CC(F)(F)C1)c1ccccc1Cl [Compound 63]
